This is an account of results in patent US10253010B2, “C-glycoside derivative” (SIHUAN PHARMACEUTICAL HOLDINGS GROUP LTD., priority 2011, dated 2019).

Each structure is given as a SMILES string. Where two headings read alike, the source gives them in different places.

A word on the AUC(0-t): it is exposure summed from dosing to a finite time, without extrapolation to infinity. For orientation: AUC(0-inf) means the area under the concentration-time curve extrapolated to infinity. Read a low AUC(0-inf) as less exposure. For orientation: bioavailability means dose-corrected exposure relative to a reference, in per cent. A word on the IC50: it is the concentration needed to halve the response being measured. Read a high IC50 as weaker potency in that assay.

A short description of data set [1]: Rat in vivo pharmacokinetic assay (IV and PO). Details: species or system SD rats. Particulars: plasma, male SD rat; for half-life: read-out: T1/2 (half-life) (converted); for bioavailability: PO 5 mg/kg versus IV 2 mg/kg, read-out: F % (absolute bioavailability). The method, then: Rat In Vivo Pharmacokinetic Assay for the Present Compounds
Assay animals: 6-8 weeks aged male SD rats (purchased from Vital River Laboratories), 6 rats per compound, weighing 220-250 g.
Dissolved in an appropriate solvent (5% DMSO+95% (6% HP-β-CD solution)).
Administration: See Table 2
Blood collection: each of about 100 μL whole blood were collected at 0 h, 0.083 h, 0.25 h, 0.5 h, 1 h, 2 h, 4 h, 6 h, 8 h and 24 h. The collected blood samples were centrifuged at 4° C. at 8000 rpm in a low temperature high-speed centrifuge (5415R, Eppendorf) for 6 mins to separate the blood plasm. The separated plasm was preserved at −80° C. in a refrigerator.
20 μL of the plasm was carefully taken out, to which was added 200 μL acetonitrile solution (containing internal standard KBP-1204 50 ng/ml). The plasm was subjected to a vortex at 1500 rpm for 3 mins, and then centrifuged at 12000 rpm for 5 mins. The supernatant was taken and was analyzed with LC-MS/MS (API4000, Applied Biosystems). Equation Absolute bioavailability F %=[AUC]INF(PO)*Dose(IV)/[AUC]INF(IV)*Dose(PO)

The nature of data set [2]: Urine glucose assay in normal rats. The note with it: normal male SD rats, 10 mg/Kg oral, glucose 5 g/kg, 24 h urine; for Urine glucose mass: standardized to 200 g body weight. The class given is in vivo, Sprague-Dawley rats. The method, then: SPF-grade male Sprague-Dawley rats, 6-weeks aged, were used in this urine glucose assay. After the rats were fasted for 15 h, the rats were divided randomly into a blank control group, a model group, a positive drug group and a test drug group according to their body weights. The rats were put into metabolic cages where water was available but food was unavailable. The urines in this 24 hours were collected. Then, the drugs were orally administered (10 mg/Kg) and then the glucose was fed (5 g/kg) to the animals. Then the animals were put into metabolic cages. The rats were supplemented with food one hour after the drug administration and the glucose feeding, and then could freely contact the diets. The urines in this 24 hours were collected and recorded. The collected urines were centrifuged at 3000 rpm for 15 mins. The residues were removed. The supernatants were taken and the urine glucose contents therein were measured.
The urine glucose contents were standardized based on the body weight of 200 g. The data were expressed in average±standard deviation. The resulting values were analyzed with one-way ANOVA, and the comparisons between groups were conducted with one-way ANOVA and Dunnett test, where p<0.05 was considered to have a statistical significance.

The next data set has as its target T1, human SGLT1 (Homo sapiens, UniProt P13866).
T1 sequence (P13866 1-664): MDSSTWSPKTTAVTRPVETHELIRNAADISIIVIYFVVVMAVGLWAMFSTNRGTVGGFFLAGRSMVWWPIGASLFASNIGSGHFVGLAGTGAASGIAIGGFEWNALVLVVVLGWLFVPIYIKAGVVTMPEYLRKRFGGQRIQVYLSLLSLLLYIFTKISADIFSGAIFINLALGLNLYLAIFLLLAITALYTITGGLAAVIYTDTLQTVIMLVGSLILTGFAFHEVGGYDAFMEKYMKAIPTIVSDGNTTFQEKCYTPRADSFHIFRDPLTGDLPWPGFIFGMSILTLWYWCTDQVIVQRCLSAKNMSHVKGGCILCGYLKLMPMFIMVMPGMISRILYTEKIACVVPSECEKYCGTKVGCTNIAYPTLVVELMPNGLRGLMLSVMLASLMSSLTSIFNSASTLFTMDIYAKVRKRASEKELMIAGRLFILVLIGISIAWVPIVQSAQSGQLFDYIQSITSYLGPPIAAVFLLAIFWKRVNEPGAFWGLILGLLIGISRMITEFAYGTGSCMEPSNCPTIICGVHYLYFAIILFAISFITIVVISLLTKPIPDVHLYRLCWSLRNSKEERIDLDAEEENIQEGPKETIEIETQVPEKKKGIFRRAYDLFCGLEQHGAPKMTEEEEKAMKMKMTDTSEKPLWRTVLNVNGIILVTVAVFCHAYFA
The data set can be described thus: Inhibition of sodium dependent [14C]-AMG uptake in CHO cells stably expressing human SGLT1. The class given is cell-based. The note with it: CHO cells expressing human SGLT1, [14C]-AMG uptake. The method, then: (§1) In the in vitro evaluation method according to the present invention, the human SGLT2 and SGLT1 sequences were transfected to Chinese hamster ovary cells to express stably. By measuring inhibition of the sodium dependent adsorption of [^14C]-labeled […]-D-glucopyranoside (AMG) into the cells, the half-inhibition concentration IC50 was determined.
(§2) Buffer A (KRH-Na+): 120 mM NaCl, 4.7 mM KCl, 1.2 mM MgCl2, 2.2 mM CaCl2, 10 mM HEPES (PH 7.4 with 1 mM Tris).
(§3) Buffer A− (KRH-NMG): 120 mM NMG, 4.7 mM KCl, 1.2 mM MgCl2, 2.2 mM CaCl2, 10 mM HEPES (PH 7.4 with 1 mM Tris).
(§4) Buffer D: 120 mM NaCl, 4.7 mM KCl, 1.2 mM MgCl2, 2.2 mM CaCl2, 10 mM HEPES, 0.5 mM phlorizin (PH 7.4 with 1 mM Tris).
(§5) Assay method: Human SGLT2 and SGLT1 sequences were stably expressed in the CHO cells. The cell culture was conducted in a 96-well plate for 12 hr. The plate was washed with KRH-Na+ (Buffer A) or KRH-NMG (Buffer A−) buffering solution for three times, 200 μL/well. Then the plate was washed with a buffering solution containing Buffer A or Buffer A− plus [^14C]-AMG (10 μCi/mL), 100 μL/well. The cell culture was conducted at 37° C. for 1 h. Then, 100 μL of ice pre-cooled buffering solution (Buffer D) was added to terminate the assay. The plate was washed for 5 times. Then 100 mM NaOH solution was added, 20 μL/well, and the centrifugation at 600 rpm was conducted for 5 mins. Then Microscint 40 solution was added, 80 μl/well, and the centrifugation at 600 rpm was conducted for 5 mins. Finally, the radioactivity of [^14C]-AMG was detected with MicroBeta Trilux (purchased from PerkinElmer Co. Ltd.) according to the scintillation counting method, and the half-inhibition concentration IC50 was calculated.
(§6) The above assays were entrusted to Shanghai ChemPartner Co. Ltd.

Another data set has as its target T2, human SGLT2 (Homo sapiens, UniProt P31639).
T2 sequence (P31639 1-672): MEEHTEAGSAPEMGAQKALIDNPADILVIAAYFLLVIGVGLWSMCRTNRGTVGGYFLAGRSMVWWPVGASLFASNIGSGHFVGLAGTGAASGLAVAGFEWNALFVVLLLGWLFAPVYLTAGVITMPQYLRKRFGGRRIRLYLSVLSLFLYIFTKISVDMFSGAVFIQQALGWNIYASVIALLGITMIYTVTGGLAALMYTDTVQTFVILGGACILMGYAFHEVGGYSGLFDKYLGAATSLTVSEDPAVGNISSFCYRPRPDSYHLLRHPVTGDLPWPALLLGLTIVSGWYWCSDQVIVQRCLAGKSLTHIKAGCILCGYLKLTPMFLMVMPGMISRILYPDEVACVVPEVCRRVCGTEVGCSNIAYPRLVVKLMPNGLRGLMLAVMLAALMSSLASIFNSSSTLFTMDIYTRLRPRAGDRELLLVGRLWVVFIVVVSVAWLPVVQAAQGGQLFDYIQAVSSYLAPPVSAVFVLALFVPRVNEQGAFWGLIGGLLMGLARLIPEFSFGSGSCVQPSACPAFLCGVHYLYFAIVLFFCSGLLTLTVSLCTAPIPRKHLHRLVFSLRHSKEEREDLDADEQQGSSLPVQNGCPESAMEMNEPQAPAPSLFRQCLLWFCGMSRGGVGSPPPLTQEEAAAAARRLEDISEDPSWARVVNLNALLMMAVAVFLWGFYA
The data set can be described thus: Inhibition of sodium dependent [14C]-AMG uptake in CHO cells stably expressing human SGLT2. The class given is cell-based. The note with it: for IC50: CHO cells expressing human SGLT2, [14C]-AMG uptake; for Selectivity: SGLT1 IC50 versus SGLT2 IC50. The method, then:
as §1, §2, §3, §4, §5, §6

With `OC[C@H]1O[C@@H](c2ccc(Cl)c(Cc3ccc(O[C@H]4CCOC4)cc3)c2)[C@H](O)[C@@H](O)[C@@H]1O` [BI-10773, reference compound], in data set [1] (IV, 2 mg/kg), the AUC(0-t) was 1090 ± 138 ng·h/mL, the AUC(0-inf) came to 1100 ± 142 ng·h/mL and the half-life was 0.7 ± 0.07 h. Further, in data set [1], the bioavailability came to 16.5%. In addition, in data set [1] (PO, 5 mg/kg), the AUC(0-t) was found to be 426 ± 116 ng·h/mL, the AUC(0-inf) was 457 ± 114 ng·h/mL and the half-life is 1.33 ± 0.33 h. In data set [2], this compound had a Urine volume of 16.63 mL and a Urine glucose mass of 866.67 mg/200 g.

`OC[C@H]1OC(c2ccc(Cl)c(Cc3ccc(OC4CC5CC5C4)cc3)c2)[C@H](O)[C@@H](O)[C@@H]1O` (some centres unmarked) [Compound 4]: at human SGLT1, the IC50 came out at 2.4 µM. Moreover, in data set [1] (IV, 2 mg/kg), the AUC(0-t) came to 12400 ± 732 ng·h/mL, the AUC(0-inf) came out at 13500 ± 451 ng·h/mL and the half-life was 6.81 ± 0.74 h. Moreover, the bioavailability in data set [1] worked out at 87.2%. In addition, in data set [1] (PO, 5 mg/kg), the AUC(0-t) amounted to 26300 ± 1790 ng·h/mL, the AUC(0-inf) stood at 29500 ± 2720 ng·h/mL and the half-life is 7.33 ± 0.96 h. In data set [2], this compound registered a Urine volume of 18.50 mL and a Urine glucose mass of 1197.79 mg/200 g.

On human SGLT2, `OC[C@H]1OC(c2ccc(Cl)c(Cc3ccc(OC4C5COCC54)cc3)c2)[C@H](O)[C@@H](O)[C@@H]1O` (some centres unmarked) [Compound 10] displayed an IC50 of 0.00316 µM and a Selectivity of 596. On human SGLT1, this compound returned an IC50 of 1.89 µM. For the same compound, in data set [1] (IV, 2 mg/kg), the AUC(0-t) worked out at 972 ± 164 ng·h/mL, the AUC(0-inf) was found to be 984 ± 167 ng·h/mL and the half-life was 0.88 ± 0.21 h. Moreover, the bioavailability in data set [1] was determined as 18.9 ± 6.52%. Moreover, in data set [1] (PO, 5 mg/kg), the AUC(0-t) stood at 430 ± 166 ng·h/mL, the AUC(0-inf) worked out at 464 ± 160 ng·h/mL and the half-life is 1.77 ± 0.47 h. In data set [2], this compound yielded a Urine volume of 16.25 mL and a Urine glucose mass of 972.99 mg/200 g.

In the case of `OC[C@H]1OC(c2ccc(Cl)c(Cc3ccc(C4CCC5(CCC5)CC4)cc3)c2)[C@H](O)[C@@H](O)[C@@H]1O` (some centres unmarked) [Compound 13], on human SGLT2, 0.00399 µM corresponded to half-maximal inhibition (IC50) and the Selectivity is 73. In addition, half-maximal inhibition against human SGLT1 (IC50) was put at 29.1 µM. Besides, in data set [1] (IV, 2 mg/kg), the AUC(0-t) stood at 6950 ± 100 ng·h/mL, the AUC(0-inf) was 7010 ± 148 ng·h/mL and the half-life is 3.75 ± 0.6 h. Further, the bioavailability in data set [1] stood at 35.9 ± 7.78%. In addition, in data set [1] (PO, 5 mg/kg), the AUC(0-t) amounted to 6220 ± 1350 ng·h/mL, the AUC(0-inf) was found to be 6290 ± 1360 ng·h/mL and the half-life is 3.36 ± 0.46 h.
